pIC50: −log10 of the molar value.
Tested on: 454973-116-R2-J3-PDC complex spheroid viability
Assay: Anticancer human tumor 454973-116-R2-J3-PDC patient-derived pancreatic carcinoma cell line growth inhibition [POLQ]
Details: for pIC50: curve of first compound; for viability, T/C: stronger effect = lower value
How it was run: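 Three-cell-type spheroids modelling solid tumor plus stroma served as the readout system; POL inhibitors were tested individually and in combination, concentration ranges set by clinical Cmax where known.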

[1] = second compound 0.0316 µM, first compound 0.0316 µM
[2] = second compound 0.0316 µM, first compound 0.1 µM
[3] = second compound 0.0316 µM, first compound 0.316 µM
[4] = second compound 0.0316 µM, first compound 1 µM
[5] = second compound 0.0316 µM, first compound 3.16 µM
[6] = second compound 0.0316 µM, first compound 10 µM
[7] = second compound 0.1 µM, first compound 0.0316 µM
[8] = second compound 0.1 µM, first compound 0.1 µM
[9] = second compound 0.1 µM, first compound 0.316 µM
[10] = second compound 0.1 µM, first compound 1 µM
[11] = second compound 0.1 µM, first compound 3.16 µM
[12] = second compound 0.1 µM, first compound 10 µM
[13] = second compound 0.316 µM, first compound 0.0316 µM
[14] = second compound 0.316 µM, first compound 0.1 µM
[15] = second compound 0.316 µM, first compound 0.316 µM
[16] = second compound 0.316 µM, first compound 1 µM
[17] = second compound 0.316 µM, first compound 3.16 µM
[18] = second compound 0.316 µM, first compound 10 µM
[19] = second compound 1 µM, first compound 0.0316 µM
[20] = second compound 1 µM, first compound 0.1 µM
[21] = second compound 1 µM, first compound 0.316 µM
[22] = second compound 1 µM, first compound 1 µM
[23] = second compound 1 µM, first compound 3.16 µM
[24] = second compound 1 µM, first compound 10 µM
[25] = second compound 3.16 µM, first compound 0.0316 µM
[26] = second compound 3.16 µM, first compound 0.1 µM
[27] = second compound 3.16 µM, first compound 0.316 µM
[28] = second compound 3.16 µM, first compound 1 µM
[29] = second compound 3.16 µM, first compound 3.16 µM
[30] = second compound 3.16 µM, first compound 10 µM
[31] = second compound 10 µM, first compound 0.0316 µM
[32] = second compound 10 µM, first compound 0.1 µM
[33] = second compound 10 µM, first compound 0.316 µM
[34] = second compound 10 µM, first compound 1 µM
[35] = second compound 10 µM, first compound 3.16 µM
[36] = second compound 10 µM, first compound 10 µM
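Also: spheroids exposed to drugs for seven days before measurement.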
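For viability, T/C in this document: percent viability relative to DMSO vehicle control wells taken as 100%.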

Work on `C=CC(=O)N1CCN(c2nc(=O)n(-c3c(C)ccnc3C(C)C)c3nc(-c4c(O)cccc4F)c(F)cc23)C(C)C1` (centres undefined) + Cc1cccc(N(C)C(=O)C2C(O)CCN2c2nc(C)cc(C(F)(F)F)c2C#N)c1 yielded a pIC50 (second compound 0.0316 µM) of under 5.00, a pIC50 (second compound 0.1 µM) of under 5.00 and a pIC50 (second compound 0.316 µM) of under 5.00. The pIC50 (second compound 1 µM) was under 5.00, the pIC50 (second compound 3.16 µM) was under 5.00 and the pIC50 (second compound 10 µM) was under 5.00. The viability, T/C [1] was 100%, the viability, T/C [2] was 99.5% and the viability, T/C [3] was 98.7%. The viability, T/C [4] was 115%, the viability, T/C [5] was 106% and the viability, T/C [6] was 109%. It also gave a viability, T/C [7] of 96.9%, a viability, T/C [8] of 101% and a viability, T/C [9] of 107%. It also gave a viability, T/C [10] of 107%, a viability, T/C [11] of 110% and a viability, T/C [12] of 115%. The viability, T/C [13] was 101%, the viability, T/C [14] was 107% and the viability, T/C [15] was 108%. The viability, T/C [16] was 106%, the viability, T/C [17] was 108% and the viability, T/C [18] was 111%. For the same molecule, the viability, T/C [19] was 108%, the viability, T/C [20] was 102% and the viability, T/C [21] was 115%. It also gave a viability, T/C [22] of 105%, a viability, T/C [23] of 110% and a viability, T/C [24] of 110%. For the same molecule, the viability, T/C [25] was 107%, the viability, T/C [26] was 111% and the viability, T/C [27] was 103%. The viability, T/C [28] was 118%, the viability, T/C [29] was 112% and the viability, T/C [30] was 108%. The viability, T/C [31] was 115%, the viability, T/C [32] was 102% and the viability, T/C [33] was 109%. The viability, T/C [34] was 113%, the viability, T/C [35] was 111% and the viability, T/C [36] was 109%.
Work on `COc1cc2cc(C(=O)CCC(=O)O)sc2cc1OC` + COC1C(OC(N)=O)C(O)C(Oc2ccc3c(O)c(NC(=O)c4ccc(O)c(CC=C(C)C)c4)c(=O)oc3c2C)OC1(C)C yielded a pIC50 (second compound 0.0316 µM) of under 5.00, a pIC50 (second compound 0.1 µM) of under 5.00 and a pIC50 (second compound 0.316 µM) of under 5.00. The pIC50 (second compound 1 µM) was under 5.00, the pIC50 (second compound 3.16 µM) was under 5.00 and the pIC50 (second compound 10 µM) was under 5.00. For the same molecule, the viability, T/C [1] was 95.3%, the viability, T/C [2] was 100% and the viability, T/C [3] was 102%. It also gave a viability, T/C [4] of 121%, a viability, T/C [5] of 113% and a viability, T/C [6] of 96%. The viability, T/C [7] was 101%, the viability, T/C [8] was 115% and the viability, T/C [9] was 99.3%. It also gave a viability, T/C [10] of 118%, a viability, T/C [11] of 111% and a viability, T/C [12] of 102%. The viability, T/C [13] was 109%, the viability, T/C [14] was 110% and the viability, T/C [15] was 120%. It also gave a viability, T/C [16] of 110%, a viability, T/C [17] of 104% and a viability, T/C [18] of 97.2%. The viability, T/C [19] was 107%, the viability, T/C [20] was 102% and the viability, T/C [21] was 127%. For the same molecule, the viability, T/C [22] was 110%, the viability, T/C [23] was 107% and the viability, T/C [24] was 93.8%. For the same molecule, the viability, T/C [25] was 110%, the viability, T/C [26] was 103% and the viability, T/C [27] was 105%. For the same molecule, the viability, T/C [28] was 112%, the viability, T/C [29] was 105% and the viability, T/C [30] was 93%. The viability, T/C [31] was 114%, the viability, T/C [32] was 102% and the viability, T/C [33] was 93.6%. For the same molecule, the viability, T/C [34] was 100%, the viability, T/C [35] was 99.4% and the viability, T/C [36] was 90.5%.
